Results from the supplement of paper PMC10307832.

Assays:
Assay in all cases: relative viability (nuclei count vs DMSO), 5 days (fraction); higher = more cells survive
[1] = compound: CCN1C(=O)C2=CC(=C(N=C2N(C1=O)C3CC3)N)C(=O)N + CC(C)C[C@H](NC(=O)[C@H](Cc1ccccc1)NC(=O)c1cnccn1)B(O)O [Bortezomib] (partner 0.002 µM)
Method in brief: (§1)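 Values are medians from duplicate plates. Each reflects relative viability, defined as the nuclei count of treated wells over that of vehicle wells. Lung cancer cell lines in 1536-well plates were pin-tool dosed one day after seeding with one drug alone or with a fixed anchor-drug dose plus five library-drug doses (not always all listed) in √10 steps, then fixed, stained and imaged at 4× after 5 days.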

[2] = compound: CCN1C(=O)C2=CC(=C(N=C2N(C1=O)C3CC3)N)C(=O)N + CS(=O)(=O)N1CCN(Cc2cc3nc(-c4cccc5[nH]ncc45)nc(N4CCOCC4)c3s2)CC1 [Pictilisib] (partner 1 µM)
Method in brief: as §1

[3] = compound: CCN1C(=O)C2=CC(=C(N=C2N(C1=O)C3CC3)N)C(=O)N + C[C@@H](Oc1cc(-c2cnn(C3CCNCC3)c2)cnc1N)c1c(Cl)ccc(F)c1Cl [Crizotinib] (partner 1 µM)
Method in brief: as §1

[4] = compound: CCN1C(=O)C2=CC(=C(N=C2N(C1=O)C3CC3)N)C(=O)N + C[C@]1(O)C[C@@H](c2nc(-c3ccc4ccc(-c5ccccc5)nc4c3)c3c(N)nccn32)C1 [Linsitinib] (partner 1 µM)
Method in brief: as §1

[5] = compound: CCN1C(=O)C2=CC(=C(N=C2N(C1=O)C3CC3)N)C(=O)N + Cc1nc(NC(=O)N2CCC[C@H]2C(N)=O)sc1-c1ccnc(C(C)(C)C(F)(F)F)c1 [Alpelisib] (partner 2 µM)
Method in brief: as §1

Row | Cell Line | relative viability ([1]; first compound 0.253 µM) | relative viability ([1]; first compound 0.8 µM) | relative viability ([1]; first compound 2.53 µM) | relative viability ([1]; first compound 8 µM) | relative viability ([2]; first compound 0.253 µM) | relative viability ([2]; first compound 0.8 µM) | relative viability ([2]; first compound 2.53 µM) | relative viability ([2]; first compound 8 µM) | relative viability ([3]; first compound 0.253 µM) | relative viability ([3]; first compound 0.8 µM) | relative viability ([3]; first compound 2.53 µM) | relative viability ([3]; first compound 8 µM) | relative viability ([4]; first compound 0.253 µM) | relative viability ([4]; first compound 0.8 µM) | relative viability ([4]; first compound 2.53 µM) | relative viability ([4]; first compound 8 µM) | relative viability ([5]; first compound 0.253 µM) | relative viability ([5]; first compound 0.8 µM) | relative viability ([5]; first compound 2.53 µM) | relative viability ([5]; first compound 8 µM)
1 | NCI-H838 | 0.857 | 0.887 | 0.891 | 0.912 | 0.468 | 0.41 | 0.437 | 0.503 | 0.868 | 0.817 | 0.74 | 0.717 | 1.06 | 0.895 | 0.974 | 0.99 | 1.02 | 0.985 | 0.934 | 0.906
2 | NCI-H1355 | 1.22 | 1.3 | 1.22 | 1.25 | 0.324 | 0.513 | 0.419 | 0.505 | 1.12 | 1.05 | 1.02 | 1.1 | 0.846 | 0.891 | 0.808 | 0.687 | 0.829 | 0.949 | 0.787 | 0.853
3 | NCI-H1437 | 0.489 | 0.543 | 0.515 | 0.618 | 0.433 | 0.416 | 0.445 | 0.465 | 0.938 | 0.993 | 0.818 | 1.09 | 0.929 | 1.04 | 1.01 | 1.11 | 0.956 | 1.12 | 0.973 | 1.04
4 | NCI-H1563 | 0.919 | 0.871 | 0.83 | 0.681 | 0.648 | 0.618 | 0.728 | 0.616 | 0.907 | 0.881 | 0.991 | 0.811 | 1.17 | 1.1 | 1.26 | 1.04 | 0.983 | 0.982 | 0.913 | 0.783
5 | NCI-H1651 | 0.996 | 0.897 | 0.964 | 0.858 | 0.552 | 0.581 | 0.461 | 0.595 | 0.892 | 0.884 | 0.858 | 0.868 | 0.953 | 1.1 | 0.902 | 1.04 | 0.86 | 0.948 | 0.875 | 0.957
6 | NCI-H1666 | 0.739 | 0.692 | 0.848 | 0.74 | 0.42 | 0.377 | 0.391 | 0.359 | 1.16 | 0.998 | 0.883 | 1 | 0.805 | 0.766 | 0.792 | 0.779 | 0.985 | 0.77 | 0.969 | 1.09
7 | NCI-H1703 | 0.384 | 0.383 | 0.34 | 0.374 | 0.243 | 0.224 | 0.275 | 0.269 | 0.718 | 0.727 | 0.565 | 1.04 | 0.852 | 1.12 | 0.853 | 0.6 | 0.339 | 0.342 | 0.31 | 0.368
8 | NCI-H1734 | 0.953 | 0.999 | 0.918 | 1 | 0.456 | 0.495 | 0.44 | 0.473 | 0.716 | 0.635 | 0.618 | 0.769 | 0.837 | 0.849 | 0.852 | 0.884 | 0.658 | 0.669 | 0.688 | 0.738
9 | NCI-H1755 | 0.949 | 0.966 | 0.921 | 0.948 | 0.431 | 0.405 | 0.452 | 0.488 | 0.895 | 0.865 | 0.875 | 0.918 | 1.02 | 0.997 | 1.01 | 0.942 | 0.946 | 0.922 | 0.946 | 0.913
10 | NCI-H1792 | 0.983 | 0.861 | 1.03 | 1.06 | 0.312 | 0.28 | 0.355 | 0.3 | 1.1 | 0.902 | 1.08 | 0.878 | 0.551 | 0.624 | 0.59 | 0.559 | 0.777 | 0.687 | 0.759 | 0.774
11 | NCI-H1915 | 0.968 | 0.93 | 0.955 | 0.955 | 0.953 | 0.843 | 0.953 | 0.904 | 0.895 | 0.921 | 0.851 | 0.911 | 1.09 | 1.1 | 1.08 | 1.06 | 1.1 | 0.985 | 1.01 | 1.06
12 | NCI-H1975 | 0.378 | 0.423 | 0.413 | 0.439 | 0.276 | 0.293 | 0.306 | 0.306 | 0.948 | 0.94 | 0.97 | 0.949 | 0.981 | 0.955 | 0.882 | 1.04 | 0.635 | 0.653 | 0.614 | 0.619
13 | NCI-H1993 | 1.05 | 0.925 | 0.983 | 1.11 | 0.706 | 0.832 | 0.786 | 0.758 | 0.998 | 0.86 | 0.819 | 0.882 | 0.732 | 0.784 | 0.7 | 0.777 | 0.651 | 0.7 | 0.611 | 0.669
14 | NCI-H2009 | 0.963 | 1.09 | 0.965 | 0.94 | 0.874 | 0.803 | 0.8 | 0.771 | 1.05 | 1.03 | 0.99 | 1.05 | 1.24 | 1.15 | 1.11 | 1.1 | 1.17 | 1.11 | 1.13 | 1.09
15 | NCI-H2023 | 0.829 | 0.915 | 0.95 | 0.984 | 0.229 | 0.218 | 0.23 | 0.26 | 0.639 | 0.622 | 0.585 | 0.606 | 0.68 | 0.621 | 0.548 | 0.652 | 0.634 | 0.542 | 0.574 | 0.584
16 | NCI-H2085 | 0.971 | 1.1 | 1.04 | 0.996 | 0.418 | 0.397 | 0.444 | 0.42 | 0.861 | 0.985 | 0.84 | 1.01 | 0.969 | 0.754 | 0.799 | 0.863 | 0.96 | 0.945 | 0.924 | 1.04
17 | NCI-H2087 | 0.837 | 0.845 | 0.781 | 0.985 | 0.785 | 0.788 | 0.878 | 0.857 | 0.809 | 0.937 | 0.627 | 0.872 | 1.02 | 0.963 | 0.971 | 1.04 | 1.09 | 1.07 | 1.12 | 1.08
18 | NCI-H2126 | 1.14 | 1.14 | 1.16 | 1.05 | 0.509 | 0.511 | 0.507 | 0.474 | 1.03 | 1.02 | 1.01 | 0.977 | 0.741 | 0.745 | 0.656 | 0.718 | 0.759 | 0.734 | 0.785 | 0.734
19 | NCI-H2228 | 1.03 | 1.01 | 1.12 | 1.24 | 0.393 | 0.368 | 0.353 | 0.4 | 0.452 | 0.535 | 0.433 | 0.507 | 0.984 | 0.943 | 0.606 | 0.969 | 0.622 | 0.669 | 0.709 | 1.16
20 | NCI-H2347 | 0.982 | 0.933 | 1.19 | 0.778 | 0.475 | 0.711 | 0.566 | 0.782 | 0.862 | 0.841 | 0.712 | 0.719 | 1.04 | 1.03 | 0.925 | 0.845 | 0.963 | 0.987 | 1.02 | 0.89
21 | NCI-H2405 | 1 | 1.05 | 1.01 | 0.952 | 0.456 | 0.464 | 0.424 | 0.479 | 0.866 | 0.844 | 0.817 | 0.873 | 1.05 | 0.954 | 1.04 | 0.988 | 0.909 | 0.79 | 0.767 | 0.723
22 | NCI-H3122 | 1.04 | 1.01 | 1.02 | 1.01 | 0.51 | 0.695 | 0.554 | 0.658 | 0.257 | 0.273 | 0.27 | 0.277 | 1.04 | 0.96 | 0.982 | 1.06 | 0.748 | 0.755 | 0.717 | 0.819
23 | PC-3 [JPC-3] | 0.874 | 0.799 | 0.914 | 0.801 | 0.729 | 0.696 | 0.69 | 0.737 | 1.04 | 0.953 | 0.914 | 0.94 | 0.982 | 0.933 | 0.92 | 0.919 | 1.06 | 1 | 0.981 | 1.16
24 | PC-14 | 0.966 | 0.932 | 0.807 | 0.919 | 0.73 | 0.58 | 0.758 | 0.879 | 0.973 | 0.939 | 0.845 | 0.941 | 0.96 | 0.973 | 0.948 | 0.929 | 0.928 | 0.942 | 0.913 | 1.06
25 | RERF-LC-KJ | 1.01 | 1.03 | 1.02 | 1.01 | 0.488 | 0.455 | 0.508 | 0.55 | 0.783 | 0.842 | 0.796 | 0.858 | 0.846 | 0.864 | 0.843 | 0.817 | 0.792 | 0.791 | 0.763 | 0.838
26 | SK-LU-1 |  | 1.36 | 1.29 | 1.29 | 0.559 | 0.581 | 0.717 | 0.614 | 1.11 | 0.749 | 0.805 | 0.931 | 1.02 | 1.14 | 1.23 | 1.06 | 1.1 | 0.992 | 1.04 | 1.38
27 | SW 1573 | 0.994 | 1.14 | 0.935 | 1.04 | 0.51 | 0.519 | 0.464 | 0.551 | 0.855 | 0.744 | 0.696 | 0.772 | 0.817 | 0.729 | 0.797 | 0.781 | 0.731 | 0.844 | 0.644 | 0.849
28 | UMC-11 | 0.714 | 0.649 | 0.674 | 0.836 | 0.891 | 0.865 | 0.767 | 0.853 | 0.619 | 0.632 | 0.584 | 0.611 | 0.981 | 1.01 | 1.13 | 1.15 | 1.09 | 0.942 | 0.863 | 1.07
